Data published in US11364211B2, “Methods for selecting phosphatase selective and non-selective phosphatase inhibitors” (MEDICAL RESEARCH COUNCIL, priority 2015, dated 2022).

Key:
PPP1R15A-PP1 complex = target: T1, PPP1R15A-PP1 complex (Homo sapiens, UniProt O75807); assay: SPR steady-state binding to R15A-PP1c holophosphatase on streptavidin chip
T1 construct: the cDNAs encoding amino acids 325-636 of PPP1R15A; made in house; host or cells: R15A fragment: E. coli BL21-Gold; BAP-PP1γ: Sf9 insect cells (baculovirus)
Description: The streptavidin coated surface was activated by 1 min injection with a solution of 50 mM NaOH and 1 M NaCl. Biotin-PP1 was diluted in the running buffer (50 mM Tris pH 7.5, 100 mM NaCl, 0.1 mM EGTA, 1 mM MnCl2, 0.05% Tween 20) and injected at approximately 300 nM concentration directly to streptavidin coated surface for 100 sec or to reach immobilization level of biotin-PP1 corresponding to ˜7000 RU. A blank immobilization was performed for one of the SA sensor chip surface to use as a reference.
With minor deviations, the same procedure and conditions were used in all binding experiments. Small molecules were stored as 50 mM stock solutions in 100% DMSO. Prior to determining binding constants, serial dilutions of either 12 or 8 concentrations of the compounds were prepared in the running buffer in a 96-well plate. […] Then, without regenerating the surface, the compound dilution series was injected onto the surface of the chip Sensorgrams were analyzed using the Biacore T200 evaluation software and the binding constants determined based on a steady-state model. Kinetic experiments are carried out using different concentrations of the compound and their respective equilibrium binding levels determined.
Surface Plasmon Resonance (SPR) was used to measure the binding affinity of compounds to the PPP1R15A/B-PP1 phosphatase complex. Biotin acceptor peptide (BAP) was fused to the N-terminus of PP1γ, which enables the biotinylation of the BAP-tagged protein in Sf9 insect cells. After purification the BAP-PP1γ protein was captured on a streptavidin sensor chip (SA-chip, GE healthcare) to a response level of ˜5.000 RU. Using controlled biotinylation enables orientated and uniform immobilization on the sensor chip surface. The PP1γ was then used to capture PPP1R15A/B and form a holophosphatase complex on the surface of the streptavidin chip. This complex can then be used to test binding of compounds. 10 μM PPP1R15A/B protein concentration was used to form the holophosphatase complex during a 80 s injection. […] After the concentration series (8 or 12 concentrations) is completed the surface is regenerated with 3 M NaCl and we can capture R15A/B again to form a fresh holophosphatase complex to measure a binding of another compound concentration series. Analysing the level of equilibrium binding as a function of concentration gives interaction affinities or steady-state binding affinity (KD).
The streptavidin coated surface was activated by 1 minute injection with a solution of 50 mM NaOH and 1 M NaCl three times at a flow rate of 10 μl/min. bio-GBZ or bio-PP1c was diluted in the running buffer (50 mM Tris pH 7.5, 100 mM NaCl, 0.1 mM EGTA, 0.05% Tween 20, 0.1% DMSO) and injected at approximately 300 nM concentration at a flow rate of 10 μl/min directly to streptavidin coated surface to reach immobilization level of bio-GBZ or bio-PP1c corresponding to ˜200 and 6000 RU, respectively. A blank immobilization was performed for one of the SA sensor chip surface to use as a reference.
With minor deviations, the same procedure and conditions were used in all binding experiments. Small molecules were stored as 50 mM stock solutions in 100% DMSO. Prior to determining binding constants, serial dilutions of either 12 or 8 concentrations of the compounds were prepared in the running buffer in a 96-well plate. […] This was followed by 1 minute stabilization period, to wash off any unspecific binding. […]

R15A [1] = target: T2, R15A (Homo sapiens, UniProt O75807); assay: SPR of recombinant R15A binding to immobilized bio-GBZ; details: isolated R15A fragment, compound immobilized on chip
T2 construct: the cDNAs encoding amino acids 325-636 of PPP1R15A; MBP (N); His (C); made in house; host or cells: E. coli BL21-Gold
Description: (§1) B. SPR sensorgrams of R15A and R15B binding to bio-GBZ immobilized on the SPR sensor chip surface. R15A/B concentration=0.0244-12.5 μM.
(§2) Here we set out to develop a generalizable strategy to identify new selective phosphatase inhibitors. First, we expressed and purified R15A and R15 B (FIG. 12) and used surface plasmon resonance (SPR) to measure binding affinities of known R15A inhibitors to their targets. We tried to immobilized R15 on SPR chip but this method produced inconsistent results, probably because the natively unstructured proteins precipitate on the chip. We therefore used biotynilated guanabenz (GBZ) (7) that we immobilized on the chip and tested binding of the proteins on the immobilized compound (FIGS. 13A and 13B).
(§3) A Biacore T200 (GE Healthcare) system was used for all experiments and biotinylated GBZ (bio-GBZ) (Tsaylter 2011) or bio-PP1 was captured on a Sensor Chip SA (GE Healthcare). […]

R15A [2] = assay: as above; design: species or system human; details: immobilized biotinylated GBZ
Description: as §1, §2, §3

eIF2α phosphorylation = eIF2α phosphorylation during stress-recovery after DTT wash out; assay type: cell-based; details: 30 minute 1 mM DTT and wash out
Description: The inventors reasoned that a PPP1R15B inhibitor should prolong eIF2α phosphorylation following stress. To reveal this activity, it was crucial to search for conditions where PPP1R15A is not expressed, to avoid confounding effects. The inventors took advantage of the fast kinetic and reversibility of stress induction by DTT (Bertolotti et al., Nat. Cell. Biol., 2, 326-332, 2000; Jousse et al., 2003) and monitored eIF2α phosphorylation in cells following a 30 minute treatment with 1 mM DTT and a wash out. […] Thus, careful monitoring of the kinetic of eIF2α dephosphorylation in the early phase of a stress-recovery paradigm such as the one described here can be used to identify other PPP1R15B inhibitors.

T1 sequence (O75807 325-636): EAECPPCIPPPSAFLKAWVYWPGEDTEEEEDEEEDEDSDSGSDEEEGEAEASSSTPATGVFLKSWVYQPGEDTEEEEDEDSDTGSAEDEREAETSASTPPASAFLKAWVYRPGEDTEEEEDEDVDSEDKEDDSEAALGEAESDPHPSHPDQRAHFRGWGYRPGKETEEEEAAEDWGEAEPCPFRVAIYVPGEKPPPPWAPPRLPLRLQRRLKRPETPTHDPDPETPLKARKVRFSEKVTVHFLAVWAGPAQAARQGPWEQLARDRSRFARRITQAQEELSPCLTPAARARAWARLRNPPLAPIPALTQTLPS
T1 sequence (P36873 whole entry partner, the tested form may be a part): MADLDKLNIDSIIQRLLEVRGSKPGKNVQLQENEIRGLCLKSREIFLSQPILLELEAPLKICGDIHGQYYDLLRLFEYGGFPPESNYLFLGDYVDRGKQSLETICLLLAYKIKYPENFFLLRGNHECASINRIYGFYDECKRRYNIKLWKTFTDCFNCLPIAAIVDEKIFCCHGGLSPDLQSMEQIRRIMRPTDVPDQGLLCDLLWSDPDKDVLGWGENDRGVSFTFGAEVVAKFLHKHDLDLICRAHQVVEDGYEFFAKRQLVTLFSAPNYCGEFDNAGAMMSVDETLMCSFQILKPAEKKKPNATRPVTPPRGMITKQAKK
T2 sequence (O75807 325-636, stated change not applied): as the sequence (O75807 325-636) above

Row | SMILES | binding to R15A-PP1c (in words) (PPP1R15A-PP1 complex) | Kd (PPP1R15A-PP1 complex; steady-state affinity, listed as GBZ) [µM] | Kd (R15A [1]) [µM] | affinity for recombinant R15A fragment relative to R15B (R15A [2]) | eIF2α phosphorylation following stress (eIF2α phosphorylation)
1 | N=C(N)N/N=C/c1c(Cl)cccc1Cl [Guanabenz, reference compound] | strongly bound | 0.122 | 11 | ten times higher affinity | –
2 | [H]/N=C(\N)NN=Cc1cccc(Cl)c1Cl [Example 1, (E)-2-(2,3-dichlorobenzylidene)hydrazine-1-carboximidamide] | – | – | – | – | prolongs eIF2α phosphorylation
